Source: article PMC9103942, “A Tumor-Homing Peptide Platform Enhances Drug Solubility, Improves Blood–Brain Barrier Permeability and Targets Glioblastoma” (Cancers, 2022)

Key:
[1] = target: T1, recombinant dg-Bcan protein (Homo sapiens, UniProt Q96GW7); assay: Octet binding kinetic analysis (steady state) to recombinant dg-Bcan; conditions: one site specific binding fit, Octet RED
T1 construct: purchased R&D Systems 4009-BC-050
T1 sequence (Q96GW7 23-911): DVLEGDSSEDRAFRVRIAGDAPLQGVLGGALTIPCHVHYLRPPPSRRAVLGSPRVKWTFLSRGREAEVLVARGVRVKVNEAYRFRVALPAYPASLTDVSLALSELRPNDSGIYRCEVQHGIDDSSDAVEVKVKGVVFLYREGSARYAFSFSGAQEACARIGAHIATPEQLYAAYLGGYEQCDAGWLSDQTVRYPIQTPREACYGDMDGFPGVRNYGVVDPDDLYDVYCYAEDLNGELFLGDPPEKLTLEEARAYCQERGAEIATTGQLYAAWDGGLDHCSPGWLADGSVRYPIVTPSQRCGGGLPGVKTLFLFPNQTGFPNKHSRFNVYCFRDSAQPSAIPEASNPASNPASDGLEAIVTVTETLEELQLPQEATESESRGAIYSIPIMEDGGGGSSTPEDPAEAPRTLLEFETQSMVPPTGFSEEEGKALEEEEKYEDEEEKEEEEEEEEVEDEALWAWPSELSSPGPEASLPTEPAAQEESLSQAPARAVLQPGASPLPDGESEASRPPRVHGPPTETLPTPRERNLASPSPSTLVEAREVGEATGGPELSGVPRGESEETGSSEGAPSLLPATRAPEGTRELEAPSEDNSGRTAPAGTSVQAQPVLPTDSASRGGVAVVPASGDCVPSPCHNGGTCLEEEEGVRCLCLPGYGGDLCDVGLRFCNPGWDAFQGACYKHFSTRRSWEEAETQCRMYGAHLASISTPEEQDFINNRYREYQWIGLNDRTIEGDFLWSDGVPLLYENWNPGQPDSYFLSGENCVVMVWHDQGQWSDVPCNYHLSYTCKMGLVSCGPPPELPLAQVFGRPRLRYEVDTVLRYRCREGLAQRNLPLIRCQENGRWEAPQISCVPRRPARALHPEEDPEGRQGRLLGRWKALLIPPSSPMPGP
Method: Figure 3 Cytotoxicity of BTP-7-CPT. (a) Western blot showing expression of dg-Bcan in patient-derived GBM-X6 cells, as well as in Bcan-overexpressing HEK cells (HEK-Bcan). (b) Binding kinetics analysis (steady-state) of BTP-7-CPT (red) and unmodified CPT (blue) to recombinant dg-Bcan protein using the ForteBio Octet system. Rmax (maximal response in response unit) and KD (dissociation constant) were calculated using a non-linear regression (one site specific binding) fit using the Graphpad Prism software. (c) Luminescent cell viability (CellTiter-Glo) of GBM-X6 cells treated with BTP-7-CPT (nwells = 3) for 72 h. (d) Luminescent cell viability (CellTiter-Glo) of GS401 recurrent GBM cells treated with BTP-7-CPT (nwells = 3) for 72 h. All IC50 values were measured through the non-linear ‘log(inhibitor) vs. response—variable slope (four parameters)’ fit. […] Statistical significance was calculated using a two-way ANOVA, Sidak’s multiple comparisons test (* p < 0.05, *** p < 0.001, **** p < 0.0001). […]
Infrared spectroscopy (IR). Infrared spectra (IR) were recorded on a Bruker Alpha II FTIR. […]
Then, biosensors were exposed to the analyte (peptide) in working buffer (ranging between 0– 10 µM BTP) for 300 s during the ‘association’ step. […] Binding affinity of each peptide was assessed through steady state analysis, where the response unit was plotted over peptide concentration. […]

[2] = Compound solubility in saline vs pure DMSO (LC-MS of supernatant); format: physicochemical; conditions: room temperature 5 min, centrifuged, LC-MS EIC
Method: Dried powder of each compound was first resuspended in pure DMSO to form a 10 mm stock. Each stock was then diluted in saline (0.9% NaCl) to form an aqueous solution of 100 µm (final DMSO 1% (v/v)) or 1.3 mM (final DMSO 10% (v/v)) of each compound. The samples were incubated at room temperature for 5 min, then centrifuged at 10,000 rcf for 10 min to pellet any precipitates. 5 µL of supernatant was diluted into LC-MS vials containing 100 µL of 50:50 water:acetonitrile with 0.1% TFA additive and analyzed by LC-MS. The presence of soluble compound in each supernatant was determined by quantifying the ion count in the extracted ion chromatogram (EIC) using the MassHunter software. Solubility was measured by comparing the total EIC of the sample diluted in saline vs. in pure DMSO. Each sample was measured in duplicates.
To test the solubility of each compound in aqueous solution, a 10 mm stock of each compound in pure DMSO was diluted in saline solution (0.9% sodium chloride in water) to a final concentration of either 100 µm or 1.3 mm. The samples were incubated at room temperature for 5 min and centrifuged to remove any precipitate. The supernatant was analyzed by liquid chromatography–mass spectrometry (LC-MS). To quantify solubility, the extracted ion count from samples diluted in saline was normalized to samples diluted in pure DMSO.

[3] = Ex vivo serum stability assay, mouse serum; format: in vitro ADME; conditions: 25% mouse serum, over 12 h
Method: Mouse serum was obtained from 8–10-week-old athymic female mice. Mice were euthanized by CO2 asphyxiation with secondary decapitation to ensure death. An incision was made from the neck to the abdomen and the thorax was cut to expose the heart. An amount of 100 µL of heparin was then injected directly into the right atrium to prevent the blood from clotting. A cardiac puncture was performed by piercing the left ventricle with a 21G needle to remove 400–1000 µL of blood. Blood from five mice was collected and combined in a 10-mL centrifuge tube and centrifuged for 5 min at 500 rcf at 4 °C. The top layer containing the serum (opaque) was removed and stored at −20 °C.
To test for serum stability, a 10 mM stock of BTP-7-CPT and Scr-7-CPT was prepared in DMSO. Each compound (1.4 µL) was transferred into a microcentrifuge tube containing 200 µL of PBS with 25% mouse serum, or in PBS alone, and incubated at 37 °C (final concentration 70 μm). […] Samples containing the peptide were eluted with 10 µL of 70% acetonitrile in water containing 0.1% TFA into an LC-MS vial containing 20 µL of water with 0.1% TFA additive and analyzed via LC-MS. The amount of intact compound was determined through quantifying the ion count in the extracted ion chromatogram (EIC) using the MassHunter software. […]

[4] = Serum stability, human serum; format: in vitro ADME; conditions: 25% human serum; for half-life at 70 µM: human, LC-MS, normalized to EIC at t = 0
[5] = parameters: method as in PMID 33997269; conditions: cited from earlier work

| half-life at 70 µM [4] | remaining at 24 h ([4]; after 24 h of incubation, read-out: peptide still intact) | Compound | KD (dissociation constant) [1] | soluble compound present in saline relative to in pure DMSO ([2]; 1.3 mm in saline (0.9% NaCl), 10% DMSO) | soluble compound present in saline relative to in pure DMSO ([2]; 100 µm in saline (0.9% NaCl), 1% DMSO) | stability in mouse serum (detectable compound vs PBS) [3] | stability in mouse serum [5] |
| --- | --- | --- | --- | --- | --- | --- | --- |
| – | – | CC[C@@]1(O)C(=O)OCc2c1cc1n(c2=O)Cc2cc3ccccc3nc2-1 [CPT, camptothecin] | did not exhibit any affinity | practically undetectable | 30% | no decline in detectable compound over 12 h | – |
| 0.16 h | – | CC(C)[C@@H](NC(=O)[C@@H](Cc1c[nH]cn1)NC(=O)CNC(=O)[C@@H](Cc1c[nH]c2ccccc12)NC(=O)[C@@H](CCCCN)NC(=O)[C@H](N)[C@H](C)O)C(=O)N[C@H](CC(N)=O)C(=O)N[C@H](CCCCN)C(=O)NCCCCCC(=O)N[C@@H](CS)C(N)=O [BTP-7-X-Cys] | – | – | – | – | – |
| 4.4 h | ~40% | CC(C)[C@@H](NC(=O)[C@@H](Cc1c[nH]cn1)NC(=O)CNC(=O)[C@@H](Cc1c[nH]c2ccccc12)NC(=O)[C@@H](CCCCN)NC(=O)[C@H](N)[C@H](C)O)C(=O)N[C@H](CC(N)=O)C(=O)N[C@H](CCCCN)C(=O)NCCCCCC(N)=O [BTP-7-X] | – | – | – | – | stable in mouse serum |
